The supplement of paper PMC10627819

Assays:
S. aureus DSM 20231 [1] = test: Bliss interaction score (quartile over a dose matrix) (fitness difference); higher = more antagonism (negative = synergy)
How it was run: (§1)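 At entry into stationary phase, OD595 was recorded and divided by the robust mean of the no-drug wells on that plate, with any value above 1 set to 1. This gives the fitness measure used throughout. Single-drug fitness was inferred from combination data, and the Bliss score, observed minus product-expected fitness, is shown as quartiles across technical, biological and donor/recipient replicates.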

B. subtilis 168 [2] = test: as above
How it was run: as §1

S. aureus Newman [3] = test: as above
How it was run: as §1

S. pneumoniae D39V [4] = test: as above
How it was run: as §1

S. aureus DSM 20231 [5] = test: fitness (endpoint OD595 vs no drug) (fraction); higher = more growth
How it was run: (§2)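 At 37 °C, bacteria in TSB, LB Lennox or CY were grown in 384-well plates from a starting OD595 of 0.01. OD595 was measured every 30 min for 14 h, with the first reading used as background. Fitness is the optical density at the switch to stationary phase as a fraction of the robust mean of no-drug control wells, capped at 1.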

B. subtilis 168 [6] = test: as above
How it was run: as §2

S. aureus Newman [7] = test: as above
How it was run: as §2

S. pneumoniae D39V [8] = test: as above
How it was run: as §2
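For Bliss interaction score (quartile over a dose matrix) in this document: first quartile when negative (synergy) and third quartile when positive (antagonism).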

Cc1ncc([N+](=O)[O-])n1CCO [Metronidazole] + COc1c(N2C[C@@H]3CCCN[C@@H]3C2)c(F)cc2c(=O)c(C(=O)O)cn(C3CC3)c12 [Moxifloxacin]
Details	Bliss interaction score
B. subtilis 168 [2]	-0.015
S. aureus DSM 20231 [1]	-0.063
S. aureus Newman [3]	-0.0493
S. pneumoniae D39V [4]	0.0628

Details	fitness
B. subtilis 168 [6], first compound 0.625 µg/mL, partner 0.0312 µg/mL	0.0445
B. subtilis 168 [6], first compound 0.625 µg/mL, partner 0.0625 µg/mL	0.0572
B. subtilis 168 [6], first compound 0.625 µg/mL, partner 0.125 µg/mL	0.045
B. subtilis 168 [6], first compound 0.625 µg/mL, partner 2 µg/mL	0.0237
B. subtilis 168 [6], first compound 0.625 µg/mL, partner 4 µg/mL	0.0328
B. subtilis 168 [6], first compound 0.625 µg/mL, partner 8 µg/mL	0.0161
B. subtilis 168 [6], first compound 1.25 µg/mL, partner 0.0312 µg/mL	0.0649
B. subtilis 168 [6], first compound 1.25 µg/mL, partner 0.0625 µg/mL	0.0674
B. subtilis 168 [6], first compound 1.25 µg/mL, partner 0.125 µg/mL	0.0461
B. subtilis 168 [6], first compound 1.25 µg/mL, partner 2 µg/mL	0.0257
B. subtilis 168 [6], first compound 1.25 µg/mL, partner 4 µg/mL	0.0355
B. subtilis 168 [6], first compound 1.25 µg/mL, partner 8 µg/mL	0.022
B. subtilis 168 [6], first compound 2.5 µg/mL, partner 0.0312 µg/mL	0.0682
B. subtilis 168 [6], first compound 2.5 µg/mL, partner 0.0625 µg/mL	0.0527
B. subtilis 168 [6], first compound 2.5 µg/mL, partner 0.125 µg/mL	0.0558
B. subtilis 168 [6], first compound 2.5 µg/mL, partner 2 µg/mL	0.0301
B. subtilis 168 [6], first compound 2.5 µg/mL, partner 4 µg/mL	0.0306
B. subtilis 168 [6], first compound 2.5 µg/mL, partner 8 µg/mL	0.0188
S. aureus DSM 20231 [5], first compound 0.625 µg/mL, partner 0.0075 µg/mL	0.835
S. aureus DSM 20231 [5], first compound 0.625 µg/mL, partner 0.015 µg/mL	0.779
S. aureus DSM 20231 [5], first compound 0.625 µg/mL, partner 0.03 µg/mL	0.635
S. aureus DSM 20231 [5], first compound 1.25 µg/mL, partner 0.0075 µg/mL	0.834
S. aureus DSM 20231 [5], first compound 1.25 µg/mL, partner 0.015 µg/mL	0.807
S. aureus DSM 20231 [5], first compound 1.25 µg/mL, partner 0.03 µg/mL	0.633
S. aureus DSM 20231 [5], first compound 2.5 µg/mL, partner 0.0075 µg/mL	0.883
S. aureus DSM 20231 [5], first compound 2.5 µg/mL, partner 0.015 µg/mL	0.828
S. aureus DSM 20231 [5], first compound 2.5 µg/mL, partner 0.03 µg/mL	0.652
S. aureus Newman [7], first compound 0.625 µg/mL, partner 0.0075 µg/mL	0.77
S. aureus Newman [7], first compound 0.625 µg/mL, partner 0.015 µg/mL	0.62
S. aureus Newman [7], first compound 0.781 µg/mL, partner 0.0075 µg/mL	0.691
S. aureus Newman [7], first compound 0.781 µg/mL, partner 0.015 µg/mL	0.537
S. aureus Newman [7], first compound 0.781 µg/mL, partner 0.03 µg/mL	0.0945
S. aureus Newman [7], first compound 1.25 µg/mL, partner 0.0075 µg/mL	0.811
S. aureus Newman [7], first compound 1.25 µg/mL, partner 0.015 µg/mL	0.598
S. aureus Newman [7], first compound 1.562 µg/mL, partner 0.0075 µg/mL	0.689
S. aureus Newman [7], first compound 1.562 µg/mL, partner 0.015 µg/mL	0.531
S. aureus Newman [7], first compound 1.562 µg/mL, partner 0.03 µg/mL	0.0833
S. aureus Newman [7], first compound 2.5 µg/mL, partner 0.0075 µg/mL	0.757
S. aureus Newman [7], first compound 2.5 µg/mL, partner 0.015 µg/mL	0.596
S. aureus Newman [7], first compound 3.124 µg/mL, partner 0.0075 µg/mL	0.725
S. aureus Newman [7], first compound 3.124 µg/mL, partner 0.015 µg/mL	0.525
S. aureus Newman [7], first compound 3.124 µg/mL, partner 0.03 µg/mL	0.0829
S. pneumoniae D39V [8], first compound 1.073 µg/mL, partner 0.0037 µg/mL	0.834
S. pneumoniae D39V [8], first compound 1.073 µg/mL, partner 0.0075 µg/mL	0.85
S. pneumoniae D39V [8], first compound 1.073 µg/mL, partner 0.015 µg/mL	0.879
S. pneumoniae D39V [8], first compound 1.25 µg/mL, partner 0.005 µg/mL	0.991
S. pneumoniae D39V [8], first compound 1.25 µg/mL, partner 0.01 µg/mL	≥ 1
S. pneumoniae D39V [8], first compound 1.25 µg/mL, partner 0.02 µg/mL	0.975
S. pneumoniae D39V [8], first compound 2.145 µg/mL, partner 0.0037 µg/mL	0.689
S. pneumoniae D39V [8], first compound 2.145 µg/mL, partner 0.0075 µg/mL	0.707
S. pneumoniae D39V [8], first compound 2.145 µg/mL, partner 0.015 µg/mL	0.808
S. pneumoniae D39V [8], first compound 2.5 µg/mL, partner 0.005 µg/mL	≥ 1
S. pneumoniae D39V [8], first compound 2.5 µg/mL, partner 0.01 µg/mL	≥ 1
S. pneumoniae D39V [8], first compound 2.5 µg/mL, partner 0.02 µg/mL	≥ 1
S. pneumoniae D39V [8], first compound 4.29 µg/mL, partner 0.0037 µg/mL	0.742
S. pneumoniae D39V [8], first compound 4.29 µg/mL, partner 0.0075 µg/mL	0.787
S. pneumoniae D39V [8], first compound 4.29 µg/mL, partner 0.015 µg/mL	0.84
S. pneumoniae D39V [8], first compound 5 µg/mL, partner 0.005 µg/mL	≥ 1
S. pneumoniae D39V [8], first compound 5 µg/mL, partner 0.01 µg/mL	0.999
S. pneumoniae D39V [8], first compound 5 µg/mL, partner 0.02 µg/mL	0.983

fitness, S. aureus DSM 20231 [5], one replicate
Details	first compound 0.625 µg/mL	first compound 1.25 µg/mL	first compound 2.5 µg/mL
partner 0.06 µg/mL	0.703	0.666	0.703
partner 0.12 µg/mL	0.498	0.486	0.541

COc1cccc2c1C(=O)c1c(O)c3c(c(O)c1C2=O)C[C@@](O)(C(=O)CO)C[C@@H]3O[C@H]1C[C@H](N)[C@H](O)[C@H](C)O1 [Doxorubicin] + Cc1ncc([N+](=O)[O-])n1CCO [Metronidazole]
Details	Bliss interaction score
B. subtilis 168 [2]	0.0987
S. aureus DSM 20231 [1]	0.0515
S. aureus Newman [3]	-0.0468
S. pneumoniae D39V [4]	0.0624

fitness
Details	first compound 0.25 µg/mL	first compound 0.5 µg/mL	first compound 0.625 µg/mL	first compound 1 µg/mL	first compound 1.25 µg/mL	first compound 2.5 µg/mL
B. subtilis 168 [6], partner 0.625 µg/mL	–	–	≥ 1	–	0.964	0.74
B. subtilis 168 [6], partner 1.25 µg/mL	–	–	0.941	–	0.929	0.699
B. subtilis 168 [6], partner 2.5 µg/mL	–	–	0.937	–	0.956	0.653
S. aureus DSM 20231 [5], partner 0.625 µg/mL	–	–	0.899	–	0.874	0.791
S. aureus DSM 20231 [5], partner 1.25 µg/mL	–	–	0.972	–	0.974	0.84
S. aureus DSM 20231 [5], partner 2.5 µg/mL	–	–	0.994	–	0.965	0.897
S. aureus Newman [7], partner 0.625 µg/mL	–	–	0.843	–	0.774	0.753
S. aureus Newman [7], partner 0.781 µg/mL	–	–	0.761	–	0.765	0.75
S. aureus Newman [7], partner 1.25 µg/mL	–	–	0.881	–	0.807	0.795
S. aureus Newman [7], partner 1.562 µg/mL	–	–	0.76	–	0.793	0.751
S. aureus Newman [7], partner 2.5 µg/mL	–	–	0.853	–	0.793	0.732
S. aureus Newman [7], partner 3.124 µg/mL	–	–	0.76	–	0.806	0.76
S. pneumoniae D39V [8], partner 1.073 µg/mL	0.827	0.954	–	0.895	–	–
S. pneumoniae D39V [8], partner 1.25 µg/mL	0.993	≥ 1	–	0.969	–	–
S. pneumoniae D39V [8], partner 2.145 µg/mL	0.79	0.895	–	0.907	–	–
S. pneumoniae D39V [8], partner 2.5 µg/mL	≥ 1	≥ 1	–	0.981	–	–
S. pneumoniae D39V [8], partner 4.29 µg/mL	0.809	0.869	–	0.843	–	–
S. pneumoniae D39V [8], partner 5 µg/mL	0.993	0.996	–	0.944	–	–
